Results from patent publication US20130303788A1, “METHOD OF PRODUCING BIPHENOLIC COMPOUND, NOVEL BIPHENYL COMPOUND AND SYNTHESIS METHOD THEREOF, AND PHARMACEUTICAL COMPOSITION FOR TREATING PARKINSON'S DISEASE” (Tzu Chi University, priority 2012, published 2013).

How the values were obtained:
[1] = tested on: iNOS (Inducible Nitric Oxide Synthase); assay: iNOS expression level (iNOS immunohistochemistry) in striatum of 6-OHDA mouse model of PD; type: in vivo, NMRI mice; settings: Day 21 after 6-OHDA, FIG. 17
Method: (§1) The respective NMRI mouse was deeply anaesthetized with thiopental (50 mg/kg, intraperitoneally). The respective NMRI mouse was perfused transcardially with a heparin solution (0.05% heparin in 0.1 M PBS), and was subsequently perfused with 100 mL of ice-cold fixative (4% paraformaldehyde in 0.1 M PBS). The brain of the respective NMRI mouse was removed and was postfixed in the same ice-cold fixative for 12 hours, followed by dehydration in 30% sucrose in 0.1 M PBS. The brain was frozen and was subjected to tissue slicing. Serial coronal sections (a thickness of 20 μm) were cut on a freezing microtome and were placed in PBS. The sections were later processed for free-floating TH or iNOS immunohistochemistry.
The sections were rinsed three times with PBS (30 minutes for each time), were treated with 3% H2O2/10% methanol in PBS for 30 minutes for quenching the endogenous peroxidase activity, and were rinsed three times with PBS. […]
TH expression level in the striatum and the substantia nigra (SN), and iNOS expression level in the striatum were determined according to the method as described in section 4 of General Procedures on Day 21 after the injection of 6-OHDA or the vehicle. […]

[2] = tested on: TH (Tyrosine Hydroxylase); assay: TH expression level (TH immunohistochemistry) in 6-OHDA mouse model of PD; type: in vivo, NMRI mice
Method: as §1
The sections were rinsed three times with PBS (30 minutes for each time), were treated with 3% H2O2/10% methanol in PBS for 30 minutes for quenching the endogenous peroxidase activity, and were rinsed three times with PBS. After preincubation with 0.5% normal goat serum (NGS)/0.2% Triton in PBS, the sections were incubated with a primary antibody (anti-TH antibody or anti-iNOS antibody, 1:5000, Novus Biologicals, Inc., Littleton, Colo., USA) in 0.5% NGS/PBS at 4° C. for 16-18 hours. After being rinsed three times with PBS, the sections were incubated with a biotinylated goat anti-rabbit IgG (1:200) in PBS for 1 hour. Subsequently, the sections were rinsed three times with PBS and were stained with 0.05% diaminobenzidine/0.03% H2O2 in PBS for 5 minutes. The respective section was placed on a gelatin-coated slide, dehydrated through ascending concentrations of alcohol, and covered with a slipcover for observation under a light microscope.
The obtained data were subjected to the statistical analysis as described in section 5 of General Procedures. TH expression level in the striatum was determined according to the method as described in section 4 of General Procedures.
TH expression level in the striatum and the substantia nigra (SN), and iNOS expression level in the striatum were determined according to the method as described in section 4 of General Procedures on Day 21 after the injection of 6-OHDA or the vehicle.
In addition, the optical density regarding the lesioned and unlesioned sites in the striatum and SN of the NMRI mice (e.g., the sham operated control, the pathological control, and the NMRI mice treated with product 1) was determined from the obtained photomicrographs illustrating TH expression level via ImageJ software (National Institutes of Health). The relative optical density was calculated using the following formula:
where J=relative optical density • K=optical density of the lesioned site • L=optical density of the unlesioned site

inflammatory pain = settings: Lin Yi-Ruu et al. (2007); cited from earlier work
[3] = tested on: mouse model of PD (6-OHDA unilateral striatal lesion); assay: Beam walking test, incoordination induced by 6-OHDA; type: in vivo, NMRI mice
Method: Product 1 was administered intraperitoneally to NMRI mice at a dose of 5 mg/kg. 30 minutes after the administration of product 1, the NMRI mice were subjected to 6-OHDA injection according to the method as described in section 2 of General Procedures.
NMRI mice into which the vehicle was injected, and which were not treated with product 1 before the injection of the vehicle, served as a sham operated control. NMRI mice that were subjected to 6-OHDA injection and that were not treated with product 1 before the 6-OHDA injection served as a pathological control.
The NMRI mice were subjected to the beam walking test as described in the following subsection 3 on Day 1 and Day 7 after the injection of 6-OHDA or the vehicle. The obtained data were subjected to the statistical analysis as described in section 5 of General Procedures.
NMRI mice were subjected to 6-OHDA injection according to the method as described in section 2 of General Procedures. On Day 7 after the 6-OHDA injection, product 1 was administered intraperitoneally to the NMRI mice at a dose of 5 mg/kg respectively for 7 and 14 consecutive days.
NMRI mice into which a vehicle (saline containing 0.02% ascorbic acid) was injected (generally according to the method as described in section 2 of General Procedures, except that 6-OHDA was not injected), and which were not treated with product 1 after the injection of the vehicle, served as a sham operated control. NMRI mice that were subjected to 6-OHDA injection and that were not treated with product 1 after the 6-OHDA injection served as a pathological control.
The NMRI mice were subjected to the beam walking test as described in the following subsection 3 on Day 14 or Day 21 after the injection of 6-OHDA or the vehicle. The obtained data were subjected to the statistical analysis as described in section 5 of General Procedures.
A beam walking test was conducted under proper conditions, e.g., silence and illumination, so as to evaluate coordination of the respective NMRI mouse. The respective NMRI mouse was placed at a starting point of a beam having a height of 50 cm from a supporting surface, equipped with an escape plateform at each end. […] Before the beam walking test, the respective mouse was trained to walk through the beam for 3 days so that the escape latency thereof was less than 20 seconds. The total travel distance was measured.

With C=CCc1ccc(O)c(-c2ccc(O)c(CC=C)c2)c1 [product 1, 5,3′-Diallyl-biphenyl-2,4′-diol] the “iNOS expression in the striatum, subchronic post-treatment” value ([1]; 0.5, 1, 5 mg/kg i.p. 14 consecutive days starting Day 7) was “significantly inhibited iNOS expression in the striatum”, the “relationship between dose and number of iNOS-positive cells in the striatum” value ([1]; 0.5, 1, 5 mg/kg i.p.) was “dose-dependent relationship” and the “TH expression level in right (lesioned) striatum vs pathological control, subchronic treatment” value ([2]; 5 mg/kg i.p. for 14 consecutive days after 6-OHDA injection, FIG. 12) was “significantly higher TH expression level”. The “loss of TH-ir fibers in the striatum, subchronic post-treatment” value ([2]; i.p. 14 consecutive days starting Day 7, Day 21 after 6-OHDA, FIGS. 14, 15(A), 16) was “significantly alleviated the loss of TH-ir fibers”, the “loss of TH-ir fibers in the substantia nigra (SN), subchronic post-treatment” value ([2]; i.p. 14 consecutive days starting Day 7, Day 21 after 6-OHDA, FIGS. 14, 15(B), 16) was “significantly alleviated the loss of TH-ir fibers” and the “alleviation of inflammatory pain in an animal model” value (inflammatory pain) was “effective in alleviating inflammatory pain”. The “14-day post-treatment compared to 7-day post-treatment, motor incoordination” value ([3]; 5 mg/kg i.p.) was “more effectively alleviating the motor incoordination”, the “duration of the effect of the pretreatment on motor incoordination” value ([3]; 5 mg/kg i.p. 30 minutes before 6-OHDA) was “at least 7 days” and the “motor incoordination (beam walking), pretreatment” value ([3]; 5 mg/kg i.p. 30 minutes before 6-OHDA, Day 1 and Day 7 after 6-OHDA, FIGS. 18(A), 18(B)) was “significantly alleviated the motor incoordination”. The “motor incoordination (beam walking), 7-day post-treatment” value ([3]; 5 mg/kg i.p. for 7 days starting Day 7 after 6-OHDA, tested Day 14, FIG. 19) was “significantly alleviated the motor incoordination” and the “motor incoordination (beam walking), 14-day post-treatment” value ([3]; 5 mg/kg i.p. for 14 days starting Day 7 after 6-OHDA, tested Day 21, FIG. 19) was “significantly alleviated the motor incoordination”.
